Earlier results on 1 substance are cited in patent US20210145036A1 (priority 2018, published 2021).

The conditions of this data set: in vivo.

Turning to “(1S,5S)-2,6,6-Trimethylbicyclo[3.1.1]hept-2-ene ((−)-α-Pinene)”, the human pulmonary uptake is 60%.
